Tested on: white tail deer
Assay: 12-month field test of repellent at twenty-one monitored test sites (tracks and browsing damage)
Format: in vivo, Odocoileus virginianus
Details: within 60-day application periods; regular and consistent use
Experimental: The performance of repellent composition of the present invention was evaluated by the inventor of the present invention in a study that lasted for approximately one year using twenty-one monitored test sites to field test the effectiveness of the composition that included butyl lactate. These sites each had three monitored areas: formulation with butyl lactate (1), same formulation without butyl lactate (2), and control (3), each approximately 100-200 square feet in size. Due to the proximity of the sites, the range of climates, food sources and types of species were consistent, making it easy to assess the repellent's effectiveness, which was evaluated by means of visual inspections and rating for animal tracks around and in the areas, and browsing damage to the plant material.

Compound: CCCCOC(=O)C(C)O (stereo not shown) [Butyl lactate]
- duration of decreased white tail deer damage, presence and entry into treated areas: more than 30 days
